Results: ChEMBL document CHEMBL1158231, “Antiviral sulfated steroids from the ophiuroid Ophioplocus januarii” (J Nat Prod, 1996)

Columns and labels:
Human alphaherpesvirus 1 [1] = assay: Antiviral activity against HSV1 F infected african green monkey Vero cells assessed as reduction of virus plaque formation at 40 ug/mL; assay type: functional; parameters: scale not given: the % may be the effect or the level left
[2] = system: Respiratory syncytial virus; assay: Antiviral activity against RSV Long infected human Hep2 cells assessed as inhibition of viral-induced cytopathic effect at 10 ug/mL; assay type: functional; conditions: HEp-2
Junin virus [3] = assay: Antiviral activity against Junin virus IV 4454 infected african green monkey Vero cells assessed as reduction of virus plaque formation at 5 ug/mL; assay type: functional, Mammarenavirus juninense; parameters: scale not given: the % may be the effect or the level left
Poliovirus 3 [4] = assay: Antiviral activity against human poliovirus 3 Sabin infected african green monkey Vero cells assessed as reduction of virus plaque formation at 40 ug/mL; assay type: functional; parameters: scale not given: the % may be the effect or the level left
[5] = Cytotoxicity against african green monkey Vero cells assessed as cell viability at 40 ug/mL after 7 days by trypan blue exclusion method; assay type: cell-based; conditions: chlorocebus sabaeus, read-out: Activity
Poliovirus 3 [6] = assay: Antiviral activity against human poliovirus 3 Sabin infected african green monkey Vero cells assessed as reduction of virus plaque formation at 20 ug/mL; assay type: functional; parameters: scale not given: the % may be the effect or the level left
[7] = system: Respiratory syncytial virus; assay: Antiviral activity against RSV Long infected human Hep2 cells assessed as inhibition of viral-induced cytopathic effect at 20 ug/mL; assay type: functional; conditions: HEp-2
Junin virus [8] = assay: Antiviral activity against Junin virus IV 4454 infected african green monkey Vero cells assessed as reduction of virus plaque formation at 20 ug/mL; assay type: functional, Mammarenavirus juninense; parameters: scale not given: the % may be the effect or the level left
Human alphaherpesvirus 1 [9] = assay: Antiviral activity against HSV1 F infected african green monkey Vero cells assessed as reduction of virus plaque formation at 10 ug/mL; assay type: functional; parameters: scale not given: the % may be the effect or the level left
Human alphaherpesvirus 1 [10] = assay: Antiviral activity against HSV1 F infected african green monkey Vero cells assessed as reduction of virus plaque formation at 20 ug/mL; assay type: functional; parameters: scale not given: the % may be the effect or the level left
Vero [11] = assay: Cytotoxicity against african green monkey Vero cells at 20 ug/mL after 7 days by trypan blue exclusion method; assay type: cell-based; conditions: chlorocebus sabaeus, 168 h
[12] = system: Respiratory syncytial virus; assay: Antiviral activity against RSV Long infected human Hep2 cells assessed as inhibition of viral-induced cytopathic effect at 40 ug/mL; assay type: functional; conditions: HEp-2
Vero [13] = assay: Cytotoxicity against african green monkey Vero cells at 10 ug/mL after 7 days by trypan blue exclusion method; assay type: cell-based; conditions: chlorocebus sabaeus, 168 h
Junin virus [14] = assay: Antiviral activity against Junin virus IV 4454 infected african green monkey Vero cells assessed as reduction of virus plaque formation at 10 ug/mL; assay type: functional, Mammarenavirus juninense; parameters: scale not given: the % may be the effect or the level left
[15] = system: Respiratory syncytial virus; assay: Antiviral activity against RSV Long infected human Hep2 cells assessed as inhibition of viral-induced cytopathic effect at 5 ug/mL; assay type: functional; conditions: HEp-2
Poliovirus 3 [16] = assay: Antiviral activity against human poliovirus 3 Sabin infected african green monkey Vero cells assessed as reduction of virus plaque formation at 5 ug/mL; assay type: functional; parameters: scale not given: the % may be the effect or the level left
Junin virus [17] = assay: Antiviral activity against Junin virus IV 4454 infected african green monkey Vero cells assessed as reduction of virus plaque formation at 40 ug/mL; assay type: functional, Mammarenavirus juninense; parameters: scale not given: the % may be the effect or the level left
Human alphaherpesvirus 1 [18] = assay: Antiviral activity against HSV1 F infected african green monkey Vero cells assessed as reduction of virus plaque formation at 5 ug/mL; assay type: functional; parameters: scale not given: the % may be the effect or the level left
Vero [19] = assay: Cytotoxicity against african green monkey Vero cells at 5 ug/mL after 7 days by trypan blue exclusion method; assay type: cell-based; conditions: chlorocebus sabaeus, 168 h
Poliovirus 3 [20] = assay: Antiviral activity against human poliovirus 3 Sabin infected african green monkey Vero cells assessed as reduction of virus plaque formation at 10 ug/mL; assay type: functional; parameters: scale not given: the % may be the effect or the level left

C=C(CC[C@@H](COS(=O)(=O)[O-])[C@H]1CC[C@H]2[C@@H]3CC[C@@H]4[C@H](O)[C@H](OS(=O)(=O)[O-])CC[C@]4(C)[C@H]3[C@@H](O)C[C@]12C)C(C)C.[Na+].[Na+]
Activity (Human alphaherpesvirus 1 [1]): 36% | inhibition at 10 µg/mL [2]: 25% | Activity (Junin virus [3]): 19% | Activity (Poliovirus 3 [4]): 31% | viability at 168 h, 40 ug/mL [5]: 100% | Activity (Poliovirus 3 [6]): 16% | inhibition at 20 µg/mL [7]: 25% | Activity (Junin virus [8]): 38% | Activity (Human alphaherpesvirus 1 [9]): 11% | Activity (Human alphaherpesvirus 1 [10]): 20% | Activity (Vero [11]): Non-toxic | inhibition at 40 µg/mL [12]: 50% | Activity (Vero [13]): Non-toxic | Activity (Junin virus [14]): 33% | inhibition at 5 µg/mL [15]: 0% | Activity (Poliovirus 3 [16]): 0% | Activity (Junin virus [17]): 54% | Activity (Human alphaherpesvirus 1 [18]): 3% | Activity (Vero [19]): Non-toxic | Activity (Poliovirus 3 [20]): 0%

CC(C)C/C=C/[C@@H](COS(=O)(=O)[O-])[C@H]1CC[C@H]2[C@@H]3CC[C@@H]4[C@H](O)[C@H](OS(=O)(=O)[O-])CC[C@]4(C)[C@H]3[C@@H](O)C[C@]12C.[Na+].[Na+]
Activity (Human alphaherpesvirus 1 [1]): 39% | inhibition at 10 µg/mL [2]: 25% | Activity (Junin virus [3]): 15% | Activity (Poliovirus 3 [4]): 68% | viability at 168 h, 40 ug/mL [5]: 100% | Activity (Poliovirus 3 [6]): 35% | inhibition at 20 µg/mL [7]: 50% | Activity (Junin virus [8]): 36% | Activity (Human alphaherpesvirus 1 [9]): 0% | Activity (Human alphaherpesvirus 1 [10]): 14% | Activity (Vero [11]): Non-toxic | inhibition at 40 µg/mL [12]: 75% | Activity (Vero [13]): Non-toxic | Activity (Junin virus [14]): 31% | inhibition at 5 µg/mL [15]: 0% | Activity (Poliovirus 3 [16]): 0% | Activity (Junin virus [17]): 47% | Activity (Human alphaherpesvirus 1 [18]): 0% | Activity (Vero [19]): Non-toxic | Activity (Poliovirus 3 [20]): 0%

CC(C)CCC[C@@H](COS(=O)(=O)[O-])[C@H]1CC[C@H]2[C@@H]3CC[C@@H]4[C@H](O)[C@H](OS(=O)(=O)[O-])CC[C@]4(C)[C@H]3[C@@H](O)C[C@]12C.[Na+].[Na+]
Activity (Human alphaherpesvirus 1 [1]): 35% | inhibition at 10 µg/mL [2]: 0% | Activity (Junin virus [3]): 24% | Activity (Poliovirus 3 [4]): 30% | viability at 168 h, 40 ug/mL [5]: 100% | Activity (Poliovirus 3 [6]): 24% | inhibition at 20 µg/mL [7]: 25% | Activity (Junin virus [8]): 28% | Activity (Human alphaherpesvirus 1 [9]): 7% | Activity (Human alphaherpesvirus 1 [10]): 8% | Activity (Vero [11]): Non-toxic | inhibition at 40 µg/mL [12]: 25% | Activity (Vero [13]): Non-toxic | Activity (Junin virus [14]): 26% | inhibition at 5 µg/mL [15]: 0% | Activity (Poliovirus 3 [16]): 0% | Activity (Junin virus [17]): 33% | Activity (Human alphaherpesvirus 1 [18]): 2% | Activity (Vero [19]): Non-toxic | Activity (Poliovirus 3 [20]): 0%

CC(C)/C=C/[C@@H](COS(=O)(=O)[O-])[C@H]1CC[C@H]2[C@@H]3CC[C@@H]4[C@H](O)[C@H](OS(=O)(=O)[O-])CC[C@]4(C)[C@H]3[C@@H](O)C[C@]12C.[Na+].[Na+]
Activity (Human alphaherpesvirus 1 [1]): 36% | inhibition at 10 µg/mL [2]: 0% | Activity (Junin virus [3]): 10% | Activity (Poliovirus 3 [4]): 65% | viability at 168 h, 40 ug/mL [5]: 100% | Activity (Poliovirus 3 [6]): 37% | inhibition at 20 µg/mL [7]: 50% | Activity (Junin virus [8]): 29% | Activity (Human alphaherpesvirus 1 [9]): 0% | Activity (Human alphaherpesvirus 1 [10]): 12% | Activity (Vero [11]): Non-toxic | inhibition at 40 µg/mL [12]: 75% | Activity (Vero [13]): Non-toxic | Activity (Junin virus [14]): 21% | inhibition at 5 µg/mL [15]: 0% | Activity (Poliovirus 3 [16]): 0% | Activity (Junin virus [17]): 37% | Activity (Human alphaherpesvirus 1 [18]): 0% | Activity (Vero [19]): Non-toxic | Activity (Poliovirus 3 [20]): 8%
